Data from US12528826B2, “[1,4]oxazepino[2,3-c]quinolinone derivatives as BCL6 inhibitors” (Cancer Research Technology Limited, priority 2019, dated 2026).

The molecules below were run against T1, Trx-6×His-BCL6 (human BCL6 BTB domain covering amino-acid sequence 5-129) (Homo sapiens, UniProt P41182) (assay: HTRF assay (BCL6 / BCOR peptide)). Details: 1 nM Trx-6×His-BCL6, 300 nM BCOR-AF633 peptide, 2 hours incubation at room temperature.
T1 construct: made in house
Assay type: binding
Protocol: After 2 hours incubation at room temperature the plate was read on a Pherastar FSX (BMG Labtech) plate reader equipped with 337 nm laser excitation filter, a first emission filter at 620 nm and a second emission filter at 665 nm. The % inhibition at each concentration was calculated by normalising FRET ratio to the appropriate high (DMSO with all reagents) and low (DMSO without BCL6) controls.

| SMILES | HTRF avg pIC50 |
| --- | --- |
| C[C@H]1CN(c2ncc(Cl)c(Nc3ccc4c(c3)c3c(c(=O)n4C)OCC(F)(F)[C@H](C4CC4)N3)n2)CCC1(F)F (single isomer, unassigned) [Example 14a, (S)-10-((5-chloro-2-((S)-4,4-difluoro-3-methylpiperidin-1-yl)pyrimidin-4-yl)amino)-2-cyclopropyl-3,3-difluoro-7-methyl-1,2,3,4-tetrahydro-[1,4]oxazepino[2,3-c]quinolin-6(7H)-one or (S)-10-((5-chloro-2-((R)-4,4-difluoro-3-methylpiperidin-1-yl)pyrimidin-4-yl)amino)-2-cyclopropyl-3,3-difluoro-7-methyl-1,2,3,4-tetrahydro-[1.4]oxazepino[2,3-c]quinolin-6(7H)-one] | 7.81 |
| CC(=O)N[C@H]1C[C@@H](C)CN(c2ncc(Cl)c(Nc3ccc4c(c3)c3c(c(=O)n4C)OCC(F)(F)[C@H](C4CC4)N3)n2)C1 [Example 1f, N-((3S,5R)-1-(5-chloro-4-(((S)-2-cyclopropyl-3,3-difluoro-7-methyl-6-oxo-1,2,3,4,6,7-hexahydro-[1,4]oxazepino[2,3-c]quinolin-10-yl)amino)pyrimidin-2-yl)-5-methylpiperidin-3-yl)acetamide] | 8.60 |
| C[C@@H]1C[C@H](N(C)C)CN(c2ncc(Cl)c(Nc3ccc4c(c3)c3c(c(=O)n4C)OCC(F)(F)[C@H](C4CC4)N3)n2)C1 [Example 1h, (S)-10-((5-chloro-2-((3S,5R)-3-(dimethylamino)-5-methylpiperidin-1-yl)pyrimidin-4-yl)amino)-2-cyclopropyl-3,3-difluoro-7-methyl-1,2,3,4-tetrahydro-[1,4]oxazepino[2,3-c]quinolin-6(7H)-one] | 8.44 |
| Cn1c(=O)c2c(c3cc(Nc4nc(N5CCC[C@H](O)C5)ncc4Cl)ccc31)N[C@@H](C1CC1)C(F)(F)CO2 [Example 1i, (S)-10-((5-chloro-2-((S)-3-hydroxypiperidin-1-yl)pyrimidin-4-yl)amino)-2-cyclopropyl-3,3-difluoro-7-methyl-1,2,3,4-tetrahydro-[1,4]oxazepino[2,3-c]quinolin-6(7H)-one] | 8.51 |

Same assay, conditions: 1 nM Trx-6×His-BCL6, 300 nM BCOR-AF633 peptide, 2 hours incubation at room temperature; read-out: HTRF avg pIC50 (converted)

| SMILES | IC50 |
| --- | --- |
| Cn1c(=O)c2c(c3cc(Nc4nc(N5CCN6CCCC6C5)ncc4Cl)ccc31)N[C@@H](C1CC1)C(F)(F)CO2 (mixture of isomers) [Example 12h, (S)-10-((5-chloro-2-((S)-hexahydropyrrolo[1,2-a]pyrazin-2(1H)-yl)pyrimidin-4-yl)amino)-2-cyclopropyl-3,3-difluoro-7-methyl-1,2,3,4-tetrahydro-[1,4]oxazepino[2,3-c]quinolin-6(7H)-one:(S)-10-((5-chloro-2-((R)-hexahydropyrrolo[1,2-a]pyrazin-2(1H)-yl)pyrimidin-4-yl)amino)-2-cyclopropyl-3,3-difluoro-7-methyl-1,2,3,4-tetrahydro-[1,4]oxazepino[2,3-c]quinolin-6(7H)-one (1:1)] | 2.04 nM |
| Cn1c(=O)c2c(c3cc(Nc4nc(N5CCN6C(=O)CCC6C5)ncc4Cl)ccc31)N[C@@H](C1CC1)C(F)(F)CO2 (mixture of isomers) [Example 12i, (S)-10-((5-chloro-2-((R)-6-oxohexahydropyrrolo[1,2-a]pyrazin-2(1H)-yl)pyrimidin-4-yl)amino)-2-cyclopropyl-3,3-difluoro-7-methyl-1,2,3,4-tetrahydro-[1,4]oxazepino[2,3-c]quinolin-6(7H)-one:(S)-10-((5-chloro-2-((S)-6-oxohexahydropyrrolo[1,2-a]pyrazin-2(1H)-yl)pyrimidin-4-yl)amino)-2-cyclopropyl-3,3-difluoro-7-methyl-1,2,3,4-tetrahydro-[1,4]oxazepino[2,3-c]quinolin-6(7H)-one (1:1)] | 1.29 nM |
| Cn1c(=O)c2c(c3cc(Nc4nc(N5CC(O)CC6(CCC6)C5)ncc4Cl)ccc31)N[C@@H](C1CC1)C(F)(F)CO2 (mixture of isomers) [Example 12j, (S)-10-((5-chloro-2-((R)-8-hydroxy-6-azaspiro[3.5]nonan-6-yl)pyrimidin-4-yl)amino)-2-cyclopropyl-3,3-difluoro-7-methyl-1,2,3,4-tetrahydro-[1,4]oxazepino[2,3-c]quinolin-6(7H)-one:(S)-10-((5-chloro-2-((S)-8-hydroxy-6-azaspiro[3.5]nonan-6-yl)pyrimidin-4-yl)amino)-2-cyclopropyl-3,3-difluoro-7-methyl-1,2,3,4-tetrahydro-[1,4]oxazepino[2,3-c]quinolin-6(7H)-one (1:1)] | 2.63 nM |
| CC(=O)N1CC2CCC(C1)N2c1ncc(Cl)c(Nc2ccc3c(c2)c2c(c(=O)n3C)OCC(F)(F)[C@H](C3CC3)N2)n1 (single isomer, unassigned) [Example 7a] | 0.776 nM |
| CC(=O)N1C2CCC1CN(c1ncc(Cl)c(Nc3ccc4c(c3)c3c(c(=O)n4C)OCC(F)(F)[C@H](C4CC4)N3)n1)C2 (single isomer, unassigned) [Example 7b] | 1.62 nM |
| CC1CC(CC(=O)N2CCC2)CN(c2ncc(Cl)c(Nc3ccc4c(c3)c3c(c(=O)n4C)OCC(F)(F)[C@H](C4CC4)N3)n2)C1 (single isomer, unassigned) [Example 12x16a] | 2.04 nM |
| CC1CC(CC(=O)N2CCC2)CN(c2ncc(Cl)c(Nc3ccc4c(c3)c3c(c(=O)n4C)OCC(F)(F)[C@H](C4CC4)N3)n2)C1 (single isomer, unassigned) [Example 12x16b] | 5.37 nM |
| CC1CC(CC(=O)N2CC(F)(F)C2)CN(c2ncc(Cl)c(Nc3ccc4c(c3)c3c(c(=O)n4C)OCC(F)(F)[C@H](C4CC4)N3)n2)C1 (single isomer, unassigned) [Example 12x17a] | 3.98 nM |
| CC1CC(CC(=O)N2CC(F)(F)C2)CN(c2ncc(Cl)c(Nc3ccc4c(c3)c3c(c(=O)n4C)OCC(F)(F)[C@H](C4CC4)N3)n2)C1 (single isomer, unassigned) [Example 12x17b] | 13.2 nM |
| Cn1c(=O)c2c(c3cc(Nc4nc(N5CC(F)(F)C5)ncc4Cl)ccc31)N[C@@H](C1CC1)C(F)(F)CO2 [Example 1a, (S)-10-((5-chloro-2-(3,3-difluoroazetidin-1-yl)pyrimidin-4-yl)amino)-2-cyclopropyl-3,3-difluoro-7-methyl-1,2,3,4-tetrahydro-[1,4]oxazepino[2,3-c]quinolin-6(7H)-one] | 10.2 nM |
| Cn1c(=O)c2c(c3cc(Nc4nc(N5CCN(C6CC6)C(=O)C5)ncc4Cl)ccc31)N[C@@H](C1CC1)C(F)(F)CO2 [Example 1b, (S)-10-((5-chloro-2-(4-cyclopropyl-3-oxopiperazin-1-yl)pyrimidin-4-yl)amino)-2-cyclopropyl-3,3-difluoro-7-methyl-1,2,3,4-tetrahydro-[1,4]oxazepino[2,3-c]quinolin-6(7H)-one] | 1.95 nM |
| C[C@H]1CN(c2ncc(Cl)c(Nc3ccc4c(c3)c3c(c(=O)n4C)OCC(F)(F)[C@H](C4CC4)N3)n2)CC(=O)N1C [Example 1c, (S)-10-((5-chloro-2-((S)-3,4-dimethyl-5-oxopiperazin-1-yl)pyrimidin-4-yl)amino)-2-cyclopropyl-3,3-difluoro-7-methyl-1,2,3,4-tetrahydro-[1,4]oxazepino[2,3-c]quinolin-6(7H)-one] | 2.34 nM |
| Cn1c(=O)c2c(c3cc(Nc4nc(NCC(C)(C)O)ncc4Cl)ccc31)N[C@@H](C1CC1)C(F)(F)CO2 [Example 1d, (S)-10-((5-chloro-2-((2-hydroxy-2-methylpropyl)amino)pyrimidin-4-yl)amino)-2-cyclopropyl-3,3-difluoro-7-methyl-1,2,3,4-tetrahydro-[1,4]oxazepino[2,3-c]quinolin-6(7H)-one] | 3.63 nM |
| Cn1c(=O)c2c(c3cc(Nc4nc(N5C[C@H]6C[C@@H]5CO6)ncc4Cl)ccc31)N[C@@H](C1CC1)C(F)(F)CO2 [Example 1e, (S)-10-((2-((1R,4R)-2-oxa-5-azabicyclo[2.2.1]heptan-5-yl)-5-chloropyrimidin-4-yl)amino)-2-cyclopropyl-3,3-difluoro-7-methyl-1,2,3,4-tetrahydro-[1,4]oxazepino[2,3-c]quinolin-6(7H)-one] | 3.24 nM |
| CC(=O)N[C@@H]1C[C@H](C)CN(c2ncc(Cl)c(Nc3ccc4c(c3)c3c(c(=O)n4C)OCC(F)(F)[C@H](C4CC4)N3)n2)C1 [Example 1g, N-((3R,5S)-1-(5-chloro-4-(((S)-2-cyclopropyl-3,3-difluoro-7-methyl-6-oxo-1,2,3,4,6,7-hexahydro-[1,4]oxazepino[2,3-c]quinolin-10-yl)amino)pyrimidin-2-yl)-5-methylpiperidin-3-yl)acetamide] | 3.16 nM |
| Cn1c(=O)c2c(c3cc(Nc4nc(N5CCC[C@@H](O)C5)ncc4Cl)ccc31)N[C@@H](C1CC1)C(F)(F)CO2 [Example 1j, (S)-10-((5-chloro-2-((R)-3-hydroxypiperidin-1-yl)pyrimidin-4-yl)amino)-2-cyclopropyl-3,3-difluoro-7-methyl-1,2,3,4-tetrahydro-[1,4]oxazepino[2,3-c]quinolin-6(7H)-one] | 2.95 nM |
| C[C@H]1CCCN(c2ncc(Cl)c(Nc3ccc4c(c3)c3c(c(=O)n4C)OCC(F)(F)[C@H](C4CC4)N3)n2)C1 [Example 1k, (S)-10-((5-chloro-2-((S)-3-methylpiperidin-1-yl)pyrimidin-4-yl)amino)-2-cyclopropyl-3,3-difluoro-7-methyl-1,2,3,4-tetrahydro-[1,4]oxazepino[2,3-c]quinolin-6(7H)-one] | 38 nM |
| C[C@@H]1CCCN(c2ncc(Cl)c(Nc3ccc4c(c3)c3c(c(=O)n4C)OCC(F)(F)[C@H](C4CC4)N3)n2)C1 [Example 1l, (S)-10-((5-chloro-2-((R)-3-methylpiperidin-1-yl)pyrimidin-4-yl)amino)-2-cyclopropyl-3,3-difluoro-7-methyl-1,2,3,4-tetrahydro-[1,4]oxazepino[2,3-c]quinolin-6(7H)-one] | 25.7 nM |
